Two compounds from patent US7829708B2, “Metabolically inert antifolates for treating disorders of abnormal cellular proliferation and inflammation” (Chelsea Therapeutics, Inc., priority 2004, dated 2010) can be followed below.

The target of assay [1] is T1, human DHFR (Homo sapiens, UniProt P00374).
T1 sequence (P00374 1-187): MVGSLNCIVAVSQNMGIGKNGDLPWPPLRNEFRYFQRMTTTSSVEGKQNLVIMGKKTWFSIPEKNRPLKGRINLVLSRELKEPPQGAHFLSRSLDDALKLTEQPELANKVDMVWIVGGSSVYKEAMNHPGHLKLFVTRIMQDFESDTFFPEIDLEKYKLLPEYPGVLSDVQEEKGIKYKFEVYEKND
Kind of assay: Inhibition of recombinant dihydrofolate reductase in vitro. It is filed as biochemical. As to conditions: read-out: I50 (human DHFR). From the text:
(§1) The ability of M-TREX to inhibit recombinant dihydrofolate reductase (DR) and thymidylate synthase (TS) in vitro studied in comparison to other antifolate drugs.

For assay [2], the target named is Human TS (Homo sapiens, UniProt P04818). Description: Inhibition of recombinant thymidylate synthase in vitro. Format: biochemical. As to conditions: read-out: I50 (Human TS).
Sequence of Human TS (P04818 whole entry): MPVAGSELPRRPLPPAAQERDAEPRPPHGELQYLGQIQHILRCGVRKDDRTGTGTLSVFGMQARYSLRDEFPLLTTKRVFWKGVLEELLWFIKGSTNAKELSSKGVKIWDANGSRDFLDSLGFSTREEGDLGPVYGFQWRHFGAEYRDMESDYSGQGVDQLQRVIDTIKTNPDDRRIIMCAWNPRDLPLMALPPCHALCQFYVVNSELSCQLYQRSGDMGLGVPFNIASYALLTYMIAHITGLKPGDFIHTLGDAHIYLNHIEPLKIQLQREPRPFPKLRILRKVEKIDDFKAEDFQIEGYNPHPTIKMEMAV
Source text: as §1

As for `C=C(CC(NC(=O)c1ccc(CCc2cnc3nc(N)nc(N)c3n2)cc1)C(=O)O)C(=O)O` (stereo not drawn) [MDAM, methylene-1-deazaaminopterine, reference compound], the IC50 in assay [1] amounted to 44 nM. On to `C=C(CC(NC(=O)c1ccc(CCc2ccc3nc(N)nc(N)c3c2)cc1)C(=O)O)C(=O)O` (stereo not drawn) [M-TREX, 4-Amino-4-deoxy-5,8,10-trideazapteroyl-4′-methylene glutamic acid], for which the IC50 in assay [1] came out at 17 nM; in assay [2], 3800 nM.
